Patent publication US20230040909A1 (priority 2019, published 2023)
Values after ≈ are worked out from the molar mass of the structure shown. Like-named read-outs stand apart in the source and are kept apart here.

Experiments:
[1] = system: Mycobacterium abscessus; assay: M. ab_ATCC MIC MHII; format: cell-based
Text: The procedure described in Franz 2017 was used to generate the data shown in column 5 of Table 4.

[2] = VERO cell cytotoxicity; format: cell-based; details: African green monkey, VERO cells
Text: The procedures described in Falzari 2005 were used to generate the data shown in column 2 of Table 4.

[3] = system: M. tb H37Rv; assay: microbe, parasite or virus in culture; format: cell-based; details: Mycobacterium tuberculosis; for MIC: read-out: M. tb H37Rv: MIC-LORA; for inhibition at 20 µg/mL: at 20 μg/mL, read-out: M. tb H37Rv: MIC-LORA: Comment (% inhibition)
[4] = system: M. tb H37Rv; assay: microbe, parasite or virus in culture; format: cell-based, Mycobacterium tuberculosis; details: Mycobacterium tuberculosis, H37RV; for MIC: read-out: M. tb H37Rv: MIC-MABA
[5] = Mycobacteroides abscessus; read-out: M. ab_ATCC: MIC MHII: MIC

Compound: Cc1cc(C)c2cc(C(=O)NC3CC[Si](C)(C)C3)[nH]c2c1 (racemic) [MPL-296, N-(1,1-dimethylsilolan-3-yl)-4,6-dimethyl-1H-indole-2-carboxamide]
- MIC [1, 5]: 0.062 µg/mL (≈ 0.206 µM)
- IC50 [2]: 13.8 µg/mL (≈ 45.9 µM)
- MIC [3]: 2.3 µg/mL (≈ 7.65 µM)
- MIC [4]: 0.0151 µg/mL (≈ 0.0503 µM)

Compound: C[Si]1(C)CCC(NC(=O)c2cc3c(Cl)cc(Cl)cc3[nH]2)C1 (racemic) [MPL-399, 4,6-dichloro-N-(1,1-dimethylsilolan-3-yl)-1H-indole-2-carboxamide]
- MIC [1, 5]: 0.062 µg/mL (≈ 0.182 µM)
- IC50 [2]: > 20 µg/mL
- MIC [3]: 7.81 µg/mL (≈ 22.9 µM)
- MIC [4]: < 0.004 µg/mL

Compound: C[Si]1(C)CC[C@@H](NC(=O)c2cc3c(Cl)cc(Cl)cc3[nH]2)C1 (single isomer, unassigned) [MPL-399A]
- MIC [1, 5]: 0.125 µg/mL (≈ 0.366 µM)
- IC50 [2]: > 64 µg/mL
- MIC [4]: 0.03 µg/mL (≈ 0.0879 µM)

Compound: C[Si]1(C)CC[C@H](NC(=O)c2cc3c(Cl)cc(Cl)cc3[nH]2)C1 (single isomer, unassigned) [MPL-399B]
- MIC [1, 5]: 0.125 µg/mL (≈ 0.366 µM)
- IC50 [2]: 52 µg/mL (≈ 152 µM)
- MIC [4]: 0.003 µg/mL (≈ 0.00879 µM)

Compound: COc1cc(F)cc2[nH]c(C(=O)NC3CC[Si](C)(C)CC3)cc12 [MPL-196, N-(1,1-dimethylsilinan-4-yl)-6-fluoro-4-methoxy-1H-indole-2-carboxamide]
- MIC [1, 5]: > 64 µg/mL
- IC50 [2]: > 32 µg/mL
- MIC [3]: > 32 µg/mL
- MIC [4]: 0.0048 µg/mL (≈ 0.0144 µM)

Compound: O=C(NC1CC[Si]2(CCCC2)CC1)c1cc2c(F)cc(F)cc2[nH]1 [MPL-251, 4,6-difluoro-N-(5-silaspiro[4.5]decan-8-yl)-1H-indole-2-carboxamide]
- MIC [1, 5]: > 64 µg/mL
- IC50 [2]: > 20 µg/mL
- MIC [3]: 7 µg/mL (≈ 20.1 µM)
- MIC [4]: 0.0043 µg/mL (≈ 0.0123 µM)

Compound: O=C(NC1CC[Si]2(CCCC2)CC1)c1cc2c(Cl)cc(Cl)cc2[nH]1 [MPL-252, 4,6-dichloro-N-(5-silaspiro[4.5]decan-8-yl)-1H-indole-2-carboxamide]
- MIC [1, 5]: 64 µg/mL (≈ 168 µM)
- IC50 [2]: > 20 µg/mL
- MIC [4]: 0.014 µg/mL (≈ 0.0367 µM)

Compound: O=C(NC1CC[Si]2(CCCCC2)CC1)c1cc2c(F)cc(F)cc2[nH]1 [MPL-256, 4,6-difluoro-N-(6-silaspiro[5.5]undecan-3-yl)-1H-indole-2-carboxamide]
- MIC [1, 5]: > 64 µg/mL
- IC50 [2]: > 20 µg/mL
- MIC [3]: 3.4 µg/mL (≈ 9.38 µM)
- MIC [4]: 0.0041 µg/mL (≈ 0.0113 µM)

Compound: O=C(NC1CC[Si]2(CCCCC2)CC1)c1cc2c(Cl)cc(Cl)cc2[nH]1 [MPL-257, 4,6-dichloro-N-(6-silaspiro[5.5]undecan-3-yl)-1H-indole-2-carboxamide]
- MIC [1, 5]: > 64 µg/mL
- inhibition at 20 µg/mL [3]: 68%
- MIC [3]: > 20 µg/mL
- MIC [4]: 0.0045 µg/mL (≈ 0.0114 µM)

Compound: Cc1cc(C)c2cc(C(=O)NC3CCC[Si](C)(C)CC3)[nH]c2c1 (stereo not drawn) [MPL-262, N-(1,1-dimethylsilepan-4-yl)-4,6-dimethyl-1H-indole-2-carboxamide]
- MIC [1, 5]: 0.5 µg/mL (≈ 1.52 µM)
- MIC [3]: 16 µg/mL (≈ 48.7 µM)
- MIC [4]: 0.009 µg/mL (≈ 0.0274 µM)

Compound: Cc1cc(C)c2cc(C(=O)NC3CC[Si]4(CCCC4)CC3)[nH]c2c1 [MPL-264, 4,6-dimethyl-N-(5-silaspiro[4.5]decan-8-yl)-1H-indole-2-carboxamide]
- MIC [1, 5]: 64 µg/mL (≈ 188 µM)
- IC50 [2]: > 20 µg/mL
- inhibition at 20 µg/mL [3]: 85%
- MIC [3]: > 20 µg/mL
- MIC [4]: 0.011 µg/mL (≈ 0.0323 µM)

Compound: Cc1cc(C)c2cc(C(=O)NC3CC[Si]4(CCCCC4)CC3)[nH]c2c1 [MPL-265, 4,6-dimethyl-N-(6-silaspiro[5.5]undecan-3-yl)-1H-indole-2-carboxamide]
- MIC [1, 5]: > 64 µg/mL
- IC50 [2]: > 20 µg/mL
- inhibition at 20 µg/mL [3]: 84%
- MIC [3]: > 20 µg/mL
- MIC [4]: 0.014 µg/mL (≈ 0.0395 µM)

Compound: C[Si]1(C)CCCC(NC(=O)c2cc3c(F)cc(F)cc3[nH]2)CC1 (stereo not drawn) [MPL-286, N-(1,1-dimethylsilepan-4-yl)-4,6-difluoro-1H-indole-2-carboxamide]
- MIC [1, 5]: > 64 µg/mL
- IC50 [2]: > 20 µg/mL
- MIC [3]: 7.9 µg/mL (≈ 23.5 µM)
- MIC [4]: 0.0044 µg/mL (≈ 0.0131 µM)

Compound: Cc1cc(C)c2cc(C(=O)NC3CCC[Si](C)(C)CCC3)[nH]c2c1 [MPL-303, N-(1,1-dimethylsilocan-5-yl)-4,6-dimethyl-1H-indole-2-carboxamide]
- MIC [1, 5]: 4 µg/mL (≈ 11.7 µM)
- IC50 [2]: > 20 µg/mL
- MIC [3]: 4.23 µg/mL (≈ 12.3 µM)
- MIC [4]: < 0.004 µg/mL

Compound: Cc1cc(C)c2cc(C(=O)NC3CC[Si](C)(C)CC3)[nH]c2c1 [MPL-317, N-(1,1-dimethylsilinan-4-yl)-4,6-dimethyl-1H-indole-2-carboxamide]
- MIC [1, 5]: 0.062 µg/mL (≈ 0.197 µM)
- IC50 [2]: > 20 µg/mL
- MIC [3]: > 20 µg/mL
- MIC [4]: 0.031 µg/mL (≈ 0.0986 µM)

Compound: C[Si]1(C)CCCC(NC(=O)c2cc3c(C(F)(F)F)cc(C(F)(F)F)cc3[nH]2)CC1 (stereo not drawn) [MPL-324, N-(1,1-dimethylsilepan-4-yl)-4,6-bis(trifluoromethyl)-1H-indole-2-carboxamide]
- MIC [1, 5]: > 64 µg/mL
- IC50 [2]: > 20 µg/mL
- MIC [3]: > 20 µg/mL
- MIC [4]: 0.0154 µg/mL (≈ 0.0353 µM)

Compound: C[Si]1(C)CCCCC(NC(=O)c2cc3c(C(F)(F)F)cc(C(F)(F)F)cc3[nH]2)CC1 (stereo not drawn) [MPL-325, N-(1,1-dimethylsilocan-4-yl)-4,6-bis(trifluoromethyl)-1H-indole-2-carboxamide]
- MIC [1, 5]: > 64 µg/mL
- IC50 [2]: 16.4 µg/mL (≈ 36.4 µM)
- MIC [3]: > 20 µg/mL
- MIC [4]: 0.0305 µg/mL (≈ 0.0677 µM)

Compound: C[Si]1(C)CCCC(NC(=O)c2cc3c(C(F)(F)F)cc(C(F)(F)F)cc3[nH]2)CCC1 [MPL-326, N-(1,1-dimethylsilocan-5-yl)-4,6-bis(trifluoromethyl)-1H-indole-2-carboxamide]
- MIC [1, 5]: > 64 µg/mL
- IC50 [2]: 15.4 µg/mL (≈ 34.2 µM)
- MIC [3]: > 20 µg/mL
- MIC [4]: 0.0305 µg/mL (≈ 0.0677 µM)

Compound: C[Si]1(C)CCC(NC(=O)c2cc3c(C(F)(F)F)cc(C(F)(F)F)cc3[nH]2)C1 (stereo not drawn) [MPL-327, N-(1,1-dimethylsilolan-3-yl)-4,6-bis(trifluoromethyl)-1H-indole-2-carboxamide]
- MIC [1, 5]: > 64 µg/mL
- IC50 [2]: > 20 µg/mL
- MIC [3]: > 20 µg/mL
- MIC [4]: 0.00752 µg/mL (≈ 0.0184 µM)

Compound: Cc1c(C(=O)NC2CC[Si](C)(C)CC2)[nH]c2cc(Cl)cc(Cl)c12 [MPL-334, 4,6-dichloro-N-(1,1-dimethylsilinan-4-yl)-3-methyl-1H-indole-2-carboxamide]
- MIC [1, 5]: > 64 µg/mL
- IC50 [2]: > 20 µg/mL
- MIC [3]: > 20 µg/mL
- MIC [4]: < 0.004 µg/mL

Compound: Cc1c(C(=O)NC2CC[Si](C)(C)CC2)[nH]c2cc(F)cc(F)c12 [MPL-335, N-(1,1-dimethylsilinan-4-yl)-4,6-difluoro-3-methyl-1H-indole-2-carboxamide]
- MIC [1, 5]: > 64 µg/mL
- IC50 [2]: > 20 µg/mL
- MIC [3]: > 20 µg/mL
- MIC [4]: < 0.004 µg/mL

Compound: C[Si]1(C)CCC(NC(=O)c2cc3c(C(F)(F)F)cc(C(F)(F)F)cc3[nH]2)CC1 [MPL-336, N-(1,1-dimethylsilinan-4-yl)-4,6-bis(trifluoromethyl)-1H-indole-2-carboxamide]
- MIC ([1]; Mycobacteroides abscessus, read-out: M. ab_ATCC: MIC MHII: MIC): > 64 µg/mL
- IC50 [2]: > 20 µg/mL
- MIC [3]: > 20 µg/mL
- MIC [4]: 0.0306 µg/mL (≈ 0.0724 µM)

Compound: Cc1cc(Br)c2cc(C(=O)NC3CC[Si](C)(C)CC3)[nH]c2c1 [MPL-337, 4-bromo-N-(1,1-dimethylsilinan-4-yl)-6-methyl-1H-indole-2-carboxamide]
- MIC [1, 5]: > 64 µg/mL
- IC50 [2]: > 20 µg/mL
- MIC [3]: > 20 µg/mL
- MIC [4]: 0.007 µg/mL (≈ 0.0185 µM)

Compound: Cc1cc(Br)cc2[nH]c(C(=O)NC3CC[Si](C)(C)CC3)cc12 [MPL-338, 6-bromo-N-(1,1-dimethylsilinan-4-yl)-4-methyl-1H-indole-2-carboxamide]
- MIC [1, 5]: > 64 µg/mL
- IC50 [2]: > 20 µg/mL
- MIC [3]: > 20 µg/mL
- MIC [4]: < 0.004 µg/mL

Compound: C[Si]1(C)CCC(NC(=O)c2cc3c(Br)cc(C(F)(F)F)cc3[nH]2)CC1 [MPL-339, 4-bromo-N-(1,1-dimethylsilinan-4-yl)-6-(trifluoromethyl)-1H-indole-2-carboxamide]
- MIC [1, 5]: > 64 µg/mL
- IC50 [2]: > 20 µg/mL
- MIC [3]: > 20 µg/mL
- MIC [4]: < 0.004 µg/mL

Compound: Cc1cc(C#N)cc2[nH]c(C(=O)NC3CC[Si](C)(C)CC3)cc12 [MPL-340, 6-cyano-N-(1,1-dimethylsilinan-4-yl)-4-methyl-1H-indole-2-carboxamide]
- MIC [1, 5]: > 64 µg/mL
- IC50 [2]: > 20 µg/mL
- MIC [3]: > 20 µg/mL
- MIC [4]: < 0.004 µg/mL

Compound: CC(CC[Si](C)(C)C)NC(=O)c1cc2c(Cl)cc(Cl)cc2[nH]1 (stereo not drawn) [MPL-360, 4,6-dichloro-N-(1-methyl-3-trimethylsilyl-propyl)-1H-indole-2-carboxamide]
- IC50 [2]: 15.4 µg/mL (≈ 43.1 µM)
- MIC [3]: > 20 µg/mL
- inhibition at 1 µg/mL ([4]; at 1 ug/mL, read-out: M. tb H37Rv: MABA % inhibition): 87%
